According to PubChem BioAssay (NCI):
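Protocol summary: plate cells (96-well), add compound at 5 concentrations, incubate 48 h, interpolate endpoints linearly. TGI: concentration producing complete growth inhibition.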

Assays:
Test in all cases: NCI tumour cell line growth inhibition, 48 h
[1] = test system: A549 NSCLC
[2] = test system: ACHN renal
[3] = test system: HCC-2998 colon
[4] = test system: HOP-62 NSCLC
[5] = test system: HS 578T breast
[6] = test system: NCI/ADR-RES ovarian
[7] = test system: OVCAR-3 ovarian
[8] = test system: OVCAR-5 ovarian
[9] = test system: RPMI-8226 leukemia
[10] = test system: SF-295 CNS
[11] = test system: SF-539 CNS
[12] = test system: SK-MEL-28 melanoma
[13] = test system: SK-MEL-5 melanoma
[14] = test system: SNB-75 CNS
[15] = test system: SR leukemia
[16] = test system: TK-10 renal
[17] = test system: UACC-62 melanoma
[18] = test system: DU-145 prostate
[19] = test system: SN12C renal

SMILES | TGI [1] | TGI [2] | TGI [3] | TGI [4] | TGI [5] | TGI [6] | TGI [7] | TGI [8] | TGI [9] | TGI [10] | TGI [11] | TGI [12] | TGI [13] | TGI [14] | TGI [15] | TGI [16] | TGI [17] | TGI [18] | TGI [19]
CN(/N=C/c1ccccn1)C1=NCCCN1 | > 100 µM | > 100 µM | > 100 µM | > 100 µM | > 100 µM | > 100 µM | > 100 µM | > 100 µM | > 100 µM | > 100 µM | > 100 µM | > 100 µM | > 100 µM | > 100 µM | > 100 µM | > 100 µM | > 100 µM | – | –
COC(=O)CN1C(=O)C2(C(=O)OC)OC1(c1ccc([N+](=O)[O-])cc1)C1C(=O)N(c3ccccc3)C(=O)C12 (stereo unspecified) | > 100 µM | > 100 µM | – | > 100 µM | > 100 µM | > 100 µM | – | > 100 µM | – | > 100 µM | > 100 µM | > 100 µM | > 100 µM | > 100 µM | – | > 100 µM | > 100 µM | > 100 µM | > 100 µM
COc1ccc(-c2csc(Cc3nc4c(Br)cc(Br)cc4c(=O)n3-c3ccc(OC)cc3)n2)cc1 | > 100 µM | > 100 µM | > 100 µM | > 100 µM | > 100 µM | > 100 µM | > 100 µM | > 100 µM | – | > 100 µM | – | > 100 µM | 89.3 µM | > 100 µM | – | > 100 µM | > 100 µM | > 100 µM | –
Nc1cc2ncnn2c(SCC(=O)N/N=C/C(Br)=C\c2ccccc2)n1 | 60.1 µM | 62.7 µM | 40.6 µM | 87.2 µM | > 100 µM | 91.8 µM | 40.5 µM | 55.2 µM | 50.1 µM | 67.7 µM | 39.2 µM | 37.6 µM | 26.2 µM | > 100 µM | > 100 µM | 72.3 µM | – | – | 48.4 µM
O=[N+]([O-])c1cc(N=Nc2c(O)ccc3cc(S(=O)(=O)O)ccc23)c(O)c([N+](=O)[O-])c1 | > 100 µM | > 100 µM | – | > 100 µM | > 100 µM | > 100 µM | > 100 µM | > 100 µM | > 100 µM | > 100 µM | – | > 100 µM | > 100 µM | > 100 µM | – | > 100 µM | > 100 µM | > 100 µM | > 100 µM
Cc1nc2cc3ccccc3cc2[nH]c1=O | > 100 µM | – | > 100 µM | > 100 µM | – | > 100 µM | > 100 µM | > 100 µM | – | > 100 µM | > 100 µM | > 100 µM | > 100 µM | 87 µM | > 100 µM | > 100 µM | > 100 µM | > 100 µM | > 100 µM
CCOC(=O)CSC1NC(C(=O)OC)CC1OC (stereo unspecified) | > 100 µM | > 100 µM | > 100 µM | > 100 µM | > 100 µM | > 100 µM | > 100 µM | > 100 µM | > 100 µM | > 100 µM | – | > 100 µM | > 100 µM | > 100 µM | – | > 100 µM | > 100 µM | > 100 µM | –
O=c1oc2ccccc2c(O)c1C(c1ccc(-c2ccccc2)cc1)c1c(O)c2ccccc2oc1=O | – | 60.4 µM | 29 µM | 55.4 µM | 60.4 µM | 58.6 µM | 58.7 µM | – | 95.8 µM | – | – | 32 µM | 80.9 µM | > 100 µM | – | > 100 µM | 39.5 µM | > 100 µM | 33.7 µM
N#CC(C#N)=c1c2ccccc2c(=C(C#N)C#N)c2ccccc12 | > 100 µM | 43.3 µM | – | 40.5 µM | 47.7 µM | 72.4 µM | 30 µM | 43.3 µM | > 100 µM | – | – | 48.3 µM | 31 µM | 39.8 µM | – | – | 28.5 µM | – | 30.7 µM
CO[C@@]12C[C@@H](C)[C@]34O[C@H]3C[C@]3(C)O[C@]43CC1=C(C)C(=O)O2 | > 100 µM | > 100 µM | > 100 µM | – | > 100 µM | > 100 µM | > 100 µM | > 100 µM | > 100 µM | > 100 µM | > 100 µM | > 100 µM | > 100 µM | – | – | > 100 µM | > 100 µM | > 100 µM | > 100 µM
CN1C(=O)C(C(=O)Nc2ccccn2)C2C[C@@]1(C)Oc1ccccc12 (stereo partly specified) | > 100 µM | > 100 µM | > 100 µM | > 100 µM | > 100 µM | > 100 µM | > 100 µM | > 100 µM | > 100 µM | > 100 µM | – | > 100 µM | > 100 µM | > 100 µM | – | > 100 µM | > 100 µM | > 100 µM | –
S=C(N/N=C/c1ccccn1)N1CC2CCC(CC2)C1 | 14.2 µM | 2.15 µM | 18.6 µM | 0.461 µM | 30.6 µM | – | 13.9 µM | 18 µM | – | 11.1 µM | 0.287 µM | 17.4 µM | – | 0.868 µM | – | 1.82 µM | 0.531 µM | 12 µM | 0.645 µM
